This assay relates to bovine aortic endothelial cells (BAECs). The experiment in a line: Angiogenesis assay on patterned cell chip. The format is cell-based. Here is the method: In an angiogenesis assay using the fabricated substrate, bovine aortic endothelial cells (BAECs) were used. To prevent contamination, the substrate fabricated in Example 1-2 was placed in a Petri dish and irradiated with UV light for 16 hours prior to the test. BAEC cells were seeded in 2 ml of complete medium (low glucose DMEM (Dulbecco's Modified Eagle's Medium, WELGENE) containing 1× penicillin/streptomycine (WELGENE) and 20% fetal bovine serum (FBS, WELGENE)) at a cell concentration of 2.5×10^5 cells/ml, and then cultured in a 5% CO2 incubator at 37° C. for 6 hours. Next, the complete medium was replaced with the following media. • untreated plate (normal control group): 10 ml of low-glucose DMEM containing 1× penicillin/streptomycin and 0.2% FBS; • LPS (lipopolysaccharide)-treated plate (negative control group): 10 ml of low-glucose DMEM containing 1× penicillin/streptomycin, 0.2% FBS and 100 ng/ml of LPS; or • VEGF (vascular endothelial growth factor)-treated plate (positive control group): 10 ml of low-glucose DMEM containing 1× penicillin/streptomycin, 0.2% FBS and 100 ng/ml of VEGF. To prevent cells on the substrate from being dried due to evaporation of the media in the incubator, the volume of the media was increased to 10 ml, and to more accurately confirm the effect of the positive control group (VEGF-treated plate), starvation basic medium having a decreased FBS (a kind of growth factor) concentration of 0.2% was used.

Where [1] appears, read: 100 ng/ml in low-glucose DMEM with 0.2% FBS, 18 hours, optical microscope.

“Also recorded” adds a separate entry of the source. Where two headings read alike, the source gives them in different places.

Regarding lipopolysaccharide [LPS], under setting [1], the “angiogenesis on the patterned cell chip compared with the untreated case” value is “angiogenesis was inhibited” and the “number of cells in the regions between cell adsorbing H2/He plasma treated areas, compared with untreated” value is “significant decrease in the number of cells; also recorded: smaller number of cells”.
For the substance “vascular endothelial growth factor [VEGF]”, the “angiogenesis on the patterned cell chip compared with the untreated case” value is “angiogenesis was induced and promoted”. Under setting [1], the “formation of tube-shaped blood vessels” value is listed as “tube-shaped blood vessels were newly formed” and the “number of cells in the regions between cell adsorbing H2/He plasma treated areas, compared with untreated” value is on record as “proliferation of cells significantly increased; also recorded: significantly larger number of the cells”.

For the origin of these results see patent publication US20140255968A1, “METHOD FOR FABRICATING A PATTERNED SUBSTRATE FOR A CELL CULTURE, A PATTERNED SUBSTRATE FOR CELL CULTURE, AND A CELL CHIP” (RESEARCH & BUSINESS FOUNDATION SUNGKYUNKWAN UNIVERSITY, priority 2013, published 2014).
